# In US8293802B2, “Gentle-acting skin-disinfectants and hydroalcoholic gel formulations” (The Trustees of Columbia University, priority 2001, dated 2012):
# Read-outs that look alike come from different tables or passages of the source.
# Columns and labels:
# S. aureus = experiment: Rapid antimicrobial activity: test gel/base mixed with culture and bovine adult serum, 15 seconds, colony count; type: cell-based, Staphylococcus aureus; settings: for S. aureus (cfu/tube) / Growth (CFU/ml): control 1 × 10^8; for Growth (cfu/tube): Table 7, control (without gel base) 2.5-4.2 × 10^8; for antimicrobial activity against S. aureus (in words): Tables 1 and 2
# Experimental: Antimicrobial activity was evaluated using the following assay. 1 milliliter of 10^8 colony-forming units (“cfus”) of test organism per milliliter was added to 1 milliliter of bovine adult serum in a sterile culture tube and mixed. 1 milliliter of the test gel was added to each tube, and was vortexed to mix. After 15 seconds, three 0.5 ml aliquots were removed and further diluted 1:1000 with LTSB (lecithin-containing trypticase soy broth) drug-inactivating medium, and, of the resulting liquid, 0.5 milliliters were plated on each trypticase soy agar (“TSA”) plate. The resulting plates were incubated at 37° C. for 24 hours and the colony count per tube was determined.
# [1] = at 22° C.; cited from earlier work
# [2] = Table 3, alcohol gel base, 15 seconds
# [3] = Table 5, alcohol gel base, 15 seconds
# [4] = Table 10, aqueous base of Example 8, 15 seconds, aqueous base control 5.0 × 10^8
# [5] = Table 2, alcohol gel base, 15 seconds
# [6] = Table 1, alcohol gel base of Example 1, 15 seconds, bovine adult serum
# [7] = Table 1, alcohol gel base, 15 seconds
molecule,measurement,setting,value
"N=C(NCCCCCCNC(=N)NC(=N)Nc1ccc(Cl)cc1)NC(=N)Nc1ccc(Cl)cc1.O=C(O)[C@H](O)[C@@H](O)[C@H](O)[C@H](O)CO.O=C(O)[C@H](O)[C@@H](O)[C@H](O)[C@H](O)CO [0.05% CHG, chlorhexidine digluconate]",Log 10 cfu reduction relative to control,S. aureus; [2],1.0 log 10
same,fold reduction relative to control,S. aureus; [2],9 fold
same,S. aureus (cfu/tube),S. aureus; [2],1.1 × 10^7 cfu/tube
same,fold reduction relative to control,S. aureus; [3],9 fold
same,Growth (CFU/ml),S. aureus; [3],1.1 × 10^7 CFU/ml
same,Growth (cfu/tube),"S. aureus; alcohol gel base, 15 seconds",1.1 × 10^7 cfu/tube
same,Staphylococcus aureus (CFU/tube),S. aureus; [4],2.5 × 10^8 CFU/tube
"Oc1cc(Cl)ccc1Oc1ccc(Cl)cc1Cl [0.3% TC, triclosan]",fold reduction relative to control,S. aureus; [3],0 fold
same,Growth (CFU/ml),S. aureus; [3],1.0 × 10^8 CFU/ml
benzalkonium chloride [0.5% BZK],Log 10 cfu reduction relative to control,S. aureus; [5],1.4 log 10
same,fold reduction relative to control,S. aureus; [5],27 fold
same,S. aureus (cfu/tube),S. aureus; [5],3.7 × 10^6 cfu/tube
"CC(C)(C)CC(C)(C)c1ccc(OCCOCC[N+](C)(C)Cc2ccccc2)cc1 [0.12% BZT, benzethonium chloride]",fold reduction relative to control,S. aureus; [3],10 fold
same,Growth (CFU/ml),S. aureus; [3],1.0 × 10^7 CFU/ml
polyhexamethylene biguanide [0.3% PHMB],Staphylococcus aureus (CFU/tube),S. aureus,1.0 × 10^7 CFU/tube
same,fold reduction relative to control,S. aureus; [3],33 fold
same,Growth (CFU/ml),S. aureus; [3],3.0 × 10^6 CFU/ml
benzalkonium chloride [0.12% BZK],Log 10 cfu reduction relative to control,S. aureus; [5],0.8 log 10
same,fold reduction relative to control,S. aureus; [5],6.25 fold
same,S. aureus (cfu/tube),S. aureus; [5],1.6 × 10^7 cfu/tube
same,fold reduction relative to control,S. aureus; [3],6.25 fold
same,Growth (CFU/ml),S. aureus; [3],1.6 × 10^7 CFU/ml
same,Growth (cfu/tube),"S. aureus; alcohol gel base, 15 seconds",1.6 × 10^7 cfu/tube
same,Staphylococcus aureus (CFU/tube),S. aureus; [4],2.0 × 10^8 CFU/tube
same,antimicrobial activity against S. aureus (in words),S. aureus; alcohol gel base,minimal or no antimicrobial activity
"Clc1ccc(COC(Cn2ccnc2)c2ccc(Cl)cc2Cl)c(Cl)c1 (stereo not drawn) [1.0% Miconazole, miconazole]",fold reduction relative to control,S. aureus; [3],0 fold
same,Growth (CFU/ml),S. aureus; [3],1.0 × 10^8 CFU/ml
"CCCCC(CC)COCC(O)CO (stereo not drawn) [0.5% Sensiva, glycerol 1-(2-ethylhexyl)ether]",S. aureus (cfu/tube),S. aureus; [6],1 × 10^7 cfu/tube
same,fold-reduction relative to control,S. aureus; [7],2.5 fold
same,Growth (cfu/tube),"S. aureus; alcohol gel base, 15 seconds",4.0 × 10^7 cfu/tube
"N=C(NCCCCCCNC(=N)NC(=N)Nc1ccc(Cl)cc1)NC(=N)Nc1ccc(Cl)cc1.O=C(O)[C@H](O)[C@@H](O)[C@H](O)[C@H](O)CO.O=C(O)[C@H](O)[C@@H](O)[C@H](O)[C@H](O)CO [0.5% CHG, chlorhexidine digluconate]",Log 10 cfu reduction relative to control,S. aureus; [2],1.4 log 10
same,fold reduction relative to control,S. aureus; [2],23.8 fold
same,S. aureus (cfu/tube),S. aureus; [2],4.2 × 10^6 cfu/tube
"CCCCC(CC)COCC(O)CO (stereo not drawn) [3.0% Sensiva, glycerol 1-(2-ethylhexyl)ether]",S. aureus (cfu/tube),S. aureus; [6],1 × 10^6 cfu/tube
same,fold-reduction relative to control,S. aureus; [7],100 fold
povidone iodine [1.0% PVI],fold reduction relative to control,S. aureus; [3],5 fold
same,Growth (CFU/ml),S. aureus; [3],2.0 × 10^7 CFU/ml
"N=C(NCCCCCCNC(=N)NC(=N)Nc1ccc(Cl)cc1)NC(=N)Nc1ccc(Cl)cc1.O=C(O)[C@H](O)[C@@H](O)[C@H](O)[C@H](O)CO.O=C(O)[C@H](O)[C@@H](O)[C@H](O)[C@H](O)CO [0.25% CHG, chlorhexidine digluconate]",Log 10 cfu reduction relative to control,S. aureus; [2],1.1 log 10
same,fold reduction relative to control,S. aureus; [2],12.5 fold
same,S. aureus (cfu/tube),S. aureus; [2],8 × 10^6 cfu/tube
neomycin [0.3% Neomycin],fold reduction relative to control,S. aureus; [3],4.3 fold
same,Growth (CFU/ml),S. aureus; [3],2.3 × 10^7 CFU/ml
benzalkonium chloride [0.019% BZK],Growth (cfu/tube),"S. aureus; alcohol gel base, 15 seconds",8.0 × 10^7 cfu/tube
benzalkonium chloride [0.19% BZK],Log 10 cfu reduction relative to control,S. aureus; [5],0.7 log 10
same,fold reduction relative to control,S. aureus; [5],5 fold
same,S. aureus (cfu/tube),S. aureus; [5],2 × 10^7 cfu/tube
same,antimicrobial activity against S. aureus (in words),S. aureus; alcohol gel base,minimal or no antimicrobial activity
"CCCCC(CC)COCC(O)CO (stereo not drawn) [5.0% Sensiva, glycerol 1-(2-ethylhexyl)ether]",S. aureus (cfu/tube),S. aureus; [6],1 × 10^6 cfu/tube
same,fold-reduction relative to control,S. aureus; [7],100 fold
"CCCCC(CC)COCC(O)CO (stereo not drawn) [Sensiva SC 50, glycerol 1-(2-ethylhexyl)ether]",water solubility,[1],approximately 1.8 g/l
"CCCCC(CC)COCC(O)CO (stereo not drawn) [2.0% Sensiva, glycerol 1-(2-ethylhexyl)ether]",S. aureus (cfu/tube),S. aureus; [6],3 × 10^6 cfu/tube
same,fold-reduction relative to control,S. aureus; [7],33 fold
same,Log 10 cfu reduction relative to control,S. aureus; [5],1.5 log 10
same,fold reduction relative to control,S. aureus; [5],33 fold
same,S. aureus (cfu/tube),S. aureus; [5],3 × 10^6 cfu/tube
same,fold reduction relative to control,S. aureus; [3],33 fold
same,Growth (CFU/ml),S. aureus; [3],3 × 10^6 CFU/ml
same,Fold Reduction Compared to Control,"S. aureus; Table 6, alcohol gel base, 15 seconds",33 fold
same,Growth (CFU/ML),"S. aureus; Table 6, alcohol gel base, 15 seconds, control 1.0 × 10^8",3.0 × 10^6 CFU/ML
"CCCCC(CC)COCC(O)CO (stereo not drawn) [1.0% Sensiva, glycerol 1-(2-ethylhexyl)ether]",S. aureus (cfu/tube),S. aureus; [6],4 × 10^7 cfu/tube
same,fold-reduction relative to control,S. aureus; [7],9 fold
same,Log 10 cfu reduction relative to control,S. aureus; [5],1 log 10
same,fold reduction relative to control,S. aureus; [5],10 fold
same,S. aureus (cfu/tube),S. aureus; [5],4 × 10^7 cfu/tube
same,Growth (cfu/tube),"S. aureus; alcohol gel base, 15 seconds",1.0 × 10^7 cfu/tube
same,Staphylococcus aureus (CFU/tube),S. aureus; [4],5.0 × 10^8 CFU/tube
